Consider 16 compounds from patent US10022352B2, “Modulators of ATP-binding cassette transporters” (Vertex Pharmaceuticals Incorporated, priority 2006, dated 2018).

pEC50: −log10 of the molar value. Read-outs that look alike come from different tables or passages of the source.

Data set [1] concerns the target ΔF508-CFTR (Homo sapiens (Human), UniProt P13569, DEL508-508). As to the kind of experiment: Membrane potential optical assay, identification of correction compounds. It is filed as cell-based. The source says: Membrane potential optical methods for assaying ΔF508-CFTR modulation properties of compounds.
The assay utilizes fluorescent voltage sensing dyes to measure changes in membrane potential using a fluorescent plate reader (e.g., FLIPR II, Molecular Devices, Inc.) as a readout for increase in functional ΔF508-CFTR in NIH 3T3 cells. The driving force for the response is the creation of a chloride ion gradient in conjunction with channel activation by a single liquid addition step after the cells have previously been treated with compounds and subsequently loaded with a voltage sensing dye.
Identification of Correction Compounds
To identify small molecules that correct the trafficking defect associated with ΔF508-CFTR; a single-addition HTS assay format was developed. Assay Plates containing cells are incubated for ˜2-4 hours in tissue culture incubator at 37° C., 5% CO2, 90% humidity. Cells are then ready for compound exposure after adhering to the bottom of the assay plates.
The cells were incubated in serum-free medium for 16-24 hrs in tissue culture incubator at 37° C., 5% CO2, 90% humidity in the presence or absence (negative control) of test compound. The cells were subsequently rinsed 3× with Krebs Ringers solution and loaded with a voltage sensing redistribution dye. To activate ΔF508-CFTR, 10 μM forskolin and the CFTR potentiator, genistein (20 μM), were added along with Cl^−-free medium to each well. The addition of Cl^−-free medium promoted Cl^− efflux in response to ΔF508-CFTR activation and the resulting membrane depolarization was optically monitored using voltage sensor dyes.
Bath #1: (in mM) NaCl 160, KCl 4.5, CaCl2 2, MgCl2 1, HEPES 10, pH 7.4 with NaOH.
free bath solution: Chloride salts in Bath Solution #1 are substituted with gluconate salts.
NIH3T3 fibroblasts stably expressing ΔF508-CFTR are used for optical measurements of membrane potential. The cells are maintained at 37° C. in 5% CO2 and 90% humidity in Dulbecco's modified Eagle's medium supplemented with 2 mM glutamine, 10% fetal bovine serum, 1×NEAA, β-ME, 1× pen/strep, and 25 mM HEPES in 175 cm^2 culture flasks. For all optical assays, the cells were seeded at ˜20,000/well in 384-well matrigel-coated plates and cultured for 2 hrs at 37° C. before culturing at 27° C. for 24 hrs. for the potentiator assay. For the correction assays, the cells are cultured at 27° C. or 37° C. with and without compounds for 16-24 hours. Electrophysiological Assays for assaying ΔF508-CFTR modulation properties of compounds.

A short description of data set [2]: Solubility in water. It counts as physicochemical.

ΔF508-CFTR, sequence (P13569 other isoform, or with tags, fused parts or gaps del F508-F508): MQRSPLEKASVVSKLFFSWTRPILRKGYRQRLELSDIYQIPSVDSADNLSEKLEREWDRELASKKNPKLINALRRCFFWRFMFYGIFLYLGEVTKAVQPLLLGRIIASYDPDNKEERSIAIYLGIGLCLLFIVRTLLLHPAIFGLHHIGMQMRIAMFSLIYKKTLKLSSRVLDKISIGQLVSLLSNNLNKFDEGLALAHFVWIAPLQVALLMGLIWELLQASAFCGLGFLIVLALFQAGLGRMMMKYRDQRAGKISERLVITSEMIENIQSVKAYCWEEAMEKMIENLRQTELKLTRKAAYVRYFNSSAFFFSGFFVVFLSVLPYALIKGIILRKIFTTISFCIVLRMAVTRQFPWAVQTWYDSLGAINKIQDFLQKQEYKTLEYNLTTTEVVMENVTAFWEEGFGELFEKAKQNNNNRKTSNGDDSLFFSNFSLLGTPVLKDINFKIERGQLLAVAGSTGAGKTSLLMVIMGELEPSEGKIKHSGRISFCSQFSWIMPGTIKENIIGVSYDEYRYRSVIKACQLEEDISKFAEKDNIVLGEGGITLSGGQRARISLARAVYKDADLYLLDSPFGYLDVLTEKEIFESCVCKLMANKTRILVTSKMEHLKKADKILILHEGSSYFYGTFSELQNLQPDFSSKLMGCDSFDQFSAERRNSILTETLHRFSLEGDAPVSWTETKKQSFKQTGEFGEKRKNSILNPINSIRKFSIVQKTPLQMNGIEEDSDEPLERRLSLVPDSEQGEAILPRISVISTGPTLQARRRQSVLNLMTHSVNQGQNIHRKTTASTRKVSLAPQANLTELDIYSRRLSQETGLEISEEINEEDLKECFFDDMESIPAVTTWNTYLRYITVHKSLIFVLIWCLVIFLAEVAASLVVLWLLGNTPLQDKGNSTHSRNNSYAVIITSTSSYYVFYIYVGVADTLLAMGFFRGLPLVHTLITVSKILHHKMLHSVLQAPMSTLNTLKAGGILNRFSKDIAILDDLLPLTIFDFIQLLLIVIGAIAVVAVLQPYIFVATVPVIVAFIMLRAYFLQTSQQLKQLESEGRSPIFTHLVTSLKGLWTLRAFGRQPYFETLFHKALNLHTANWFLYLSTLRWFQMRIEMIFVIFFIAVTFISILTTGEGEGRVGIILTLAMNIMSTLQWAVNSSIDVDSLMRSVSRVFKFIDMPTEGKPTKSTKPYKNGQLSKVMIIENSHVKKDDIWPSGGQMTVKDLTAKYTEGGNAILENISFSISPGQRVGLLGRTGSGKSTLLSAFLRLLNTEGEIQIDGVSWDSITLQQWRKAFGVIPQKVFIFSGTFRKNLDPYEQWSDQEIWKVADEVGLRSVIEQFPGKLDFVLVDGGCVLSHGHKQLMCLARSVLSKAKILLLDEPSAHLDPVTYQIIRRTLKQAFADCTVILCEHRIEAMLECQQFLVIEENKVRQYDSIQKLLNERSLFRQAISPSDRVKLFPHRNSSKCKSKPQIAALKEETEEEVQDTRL

`CC(C)(CCO)c1cc2cc(NC(=O)C3(c4ccc5c(c4)OC(F)(F)O5)CC3)c(F)cc2n1C[C@@H](O)CO` [Compound 311]: the pEC50 (commonly the EC50 on a negative log10 scale, so that one unit is a factor of ten) is greater than 5.70 in data set [1] (read-out: Binned EC50) and 7.09 in data set [1] (read-out: EC50). Besides, the values for the Emax in data set [1] (read-out: Binned Max Efficacy) and in data set [1] (read-out: Max Efficacy) were greater than 100% and 126%, respectively.

In the case of `COc1ccc(C2(C(=O)Nc3ccc4c(c3)cc(C(C)(C)C)n4C[C@@H](O)CO)CC2(C)C)cc1` (stereo partly shown) [Compound 319], the pEC50 is greater than 5.70 in data set [1] (read-out: Binned EC50) and 7.41 in data set [1] (read-out: EC50). Moreover, the values for the Emax in data set [1] (read-out: Binned Max Efficacy) and in data set [1] (read-out: Max Efficacy) were greater than 100% and 126%, respectively.

With `CC(C)(CCOC[C@@H](O)CO)c1cc2cc(NC(=O)C3(c4ccc5c(c4)OC(F)(F)O5)CC3)c(F)cc2n1C[C@@H](O)CO` [Compound 308], the values for the pEC50 in data set [1] (read-out: Binned EC50) and in data set [1] (read-out: EC50) were 5.30 to 5.70 and 5.51, respectively. The Emax in data set [1] (read-out: Binned Max Efficacy) is greater than 100%; in data set [1] (read-out: Max Efficacy) it was 100%.

Turning to `CC(C)(C)c1cc2c(C#N)c(NC(=O)C3(c4ccc5c(c4)OC(F)(F)O5)CC3)ccc2[nH]1` [Compound 313], the figures for the pEC50 in data set [1] (read-out: Binned EC50) and in data set [1] (read-out: EC50) were greater than 5.70 and 6.55, respectively. Moreover, the figures for the Emax in data set [1] (read-out: Binned Max Efficacy) and in data set [1] (read-out: Max Efficacy) were greater than 100% and 102%, respectively.

As to `CC1(C)CCn2c1cc1cc(NC(=O)C3(c4ccc5c(c4)OC(F)(F)O5)CC3)c(F)cc12` [Compound 314], the pEC50 in data set [1] (read-out: Binned EC50) was greater than 5.70; in data set [1] (read-out: EC50), 6.64. The Emax in data set [1] (read-out: Binned Max Efficacy) was greater than 100%; in data set [1] (read-out: Max Efficacy) it was 124%.

`CC(C)(C)c1cc(C(C)(C)C)c(NC(=O)c2c[nH]c3ccccc3c2=O)cc1O` [Compound B, N-(2,4-di-tert-butyl-5-hydroxyphenyl)-4-oxo-1,4-dihydroquinoline-3-carboxamide]: the solubility (commonly how much of the substance goes into solution per volume) in data set [2] is less than 0.05 µg/mL.

Regarding `CC(C)(C)c1cc2cc(NC(=O)C3(c4ccc5c(c4)OCO5)CC3)c(F)cc2n1C[C@@H](O)CO` [Compound 318], the pEC50 in data set [1] (read-out: Binned EC50) was greater than 5.70; in data set [1] (read-out: EC50) it was 7.18. Moreover, the Emax is greater than 100% in data set [1] (read-out: Binned Max Efficacy) and 132% in data set [1] (read-out: Max Efficacy).

With `CC(C)(C)c1cc2cc(NC(=O)C3(c4ccc5c(c4)OCO5)CC3)c(F)cc2n1C[C@@H](O)CO` [Compound 310], in data set [1], the “Binned Max Efficacy” value was “+++ (“+++” means >100%)” and the “Max Efficacy” value turned out to be 120.5%. For the same compound, the pEC50 in data set [1] (read-out: Binned EC50) is greater than 5.70. Moreover, the pEC50 in data set [1] (read-out: EC50) is 6.80.

For the compound `CC(C)(CCOC[C@@H](O)CO)c1cc2cc(NC(=O)C3(c4ccc5c(c4)OC(F)(F)O5)CC3)c(F)cc2[nH]1` [Compound 316], the pEC50 in data set [1] (read-out: Binned EC50) was greater than 5.70; in data set [1] (read-out: EC50) it was 6.55. Also, the Emax in data set [1] (read-out: Binned Max Efficacy) was greater than 100%; in data set [1] (read-out: Max Efficacy) it was 126%.

Take `CC(C)(C)c1cc2cc(NC(=O)C3(c4ccc5c(c4)CCC5)CC3)ccc2n1C[C@@H](O)CO` [Compound 307]: the pEC50 is greater than 5.70 in data set [1] (read-out: Binned EC50) and 6.01 in data set [1] (read-out: EC50). Besides, the Emax in data set [1] (read-out: Binned Max Efficacy) is greater than 100%; in data set [1] (read-out: Max Efficacy), 160%.

In the case of `CC(C)(C)c1cc2c(C#N)c(NC(=O)C3(c4ccc5c(c4)OC(F)(F)O5)CC3)ccc2n1CCO` [Compound 312], the pEC50 in data set [1] (read-out: Binned EC50) was greater than 5.70; in data set [1] (read-out: EC50), 6.74. The figures for the Emax in data set [1] (read-out: Binned Max Efficacy) and in data set [1] (read-out: Max Efficacy) were greater than 100% and 118%, respectively.

Regarding `CN(C)CCn1c(C(C)(C)C)cc2cc(NC(=O)C3(c4ccc5c(c4)OC(F)(F)O5)CC3)c(F)cc21` [Compound 309], in data set [1], the “Binned Max Efficacy” value is “+++ (“+++” means >100%)” and the “Max Efficacy” value was determined as 122%. The pEC50 in data set [1] (read-out: Binned EC50) is greater than 5.70. Besides, in data set [1] (read-out: EC50), the pEC50 is 7.42.

For `CC(C)(CO)c1cc2cc(NC(=O)C3(c4ccc5c(c4)OC(F)(F)O5)CC3)c(F)cc2n1C[C@@H](O)CO` [Compound 315], the negative logarithm of the EC50 (pEC50) in data set [1] (read-out: Binned EC50) was greater than 5.70; in data set [1] (read-out: EC50) it was 6.57. For the same compound, the results for the Emax in data set [1] (read-out: Binned Max Efficacy) and in data set [1] (read-out: Max Efficacy) were greater than 100% and 106%, respectively.

On to `CC(C)(CO)c1cc2cc(NC(=O)C3(c4ccc5c(c4)OC(F)(F)O5)CC3)c(F)cc2[nH]1` [Compound 320], for which the results for the pEC50 in data set [1] (read-out: Binned EC50) and in data set [1] (read-out: EC50) were 5.30 to 5.70 and 5.37, respectively. Moreover, the values for the Emax in data set [1] (read-out: Binned Max Efficacy) and in data set [1] (read-out: Max Efficacy) were 25 to 100% and 94%, respectively.

Regarding `COc1ccc(C2(C(=O)Nc3ccc4[nH]c(C(C)(C)C)cc4c3)CC2(C)C)cc1` (stereo not shown) [Compound 317], the pEC50 in data set [1] (read-out: Binned EC50) is 5.30 to 5.70; in data set [1] (read-out: EC50), 5.34. Also, the figures for the Emax in data set [1] (read-out: Binned Max Efficacy) and in data set [1] (read-out: Max Efficacy) were 25 to 100% and 65.5%, respectively.

As for `CC(C)(C)c1cc2cc(NC(=O)C3(c4ccc(O)c(O)c4)CC3)ccc2n1C[C@@H](O)CO` [Compound 321], the pEC50 in data set [1] (read-out: Binned EC50) was greater than 5.70; in data set [1] (read-out: EC50) it was 5.74. Further, the Emax in data set [1] (read-out: Binned Max Efficacy) was 25 to 100%; in data set [1] (read-out: Max Efficacy), 76%.
